“And” between values parts separate entries of the source, which are not always exact repeats. Equal entries are not always repeated.
How the values were obtained:
intracellular Hb = biological target: T1, intracellular Hb (Mus musculus, UniProt P01942); assay: In vivo modification of intracellular Hb in wild-type mice; parameters: species or system C57BL/6 mice
T1 construct: from tissue; host or cells: blood (red cell lysates) of dosed C57BL/6 mice
Method in brief: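 C57BL/6 mice got a single 150 mg/kg dose, i.p. in 30% PEG300, or i.p. and oral in an alternative excipient. Blood was taken before dosing and at 1, 3 and 6 h (or 1, 3 or 5 h), then lysed. Lysates were analysed by cation-exchange HPLC for Hb adducts and by oxygen equilibrium for the p50 shift.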

[1] = test system: RBCs from donors with homozygous SCD; assay: Sickle inhibition in SS blood suspensions under hypoxia (2.5% oxygen); format: cell-based; conditions: Homo sapiens, 2 mM, 4 biological replicates, read-out: % Sickling Inhibition (Hypoxia)
Description: All compounds (Comp 1-13) and comparator molecules (VZHE-039, PP-14, INN-310, and Voxelotor) were evaluated following established procedures. Blood samples from individual donors with homozygous SCD (obtained with informed consent) were diluted using Hemox buffer solution with the addition of glucose (10 mM) and BSA (0.2%) to adjust hematocrit of the blood suspensions to 20%, which standardizes the procedure to normalize the ratio of RBCs to drug, for assay consistency and reproducibility. Briefly, blood suspensions were incubated under room air in the presence of various concentrations of test compounds (0-2 mM) at 37° C. for 1 hour in 96-well round bottom plates. Subsequently, the suspensions were incubated with a hypoxic gas mixture (2.5% Oxygen gas/balance Nitrogen gas) at 37° C. for up to 2 hours prior to fixation with 2% glutaraldehyde solution without exposure to air. The fixated blood aliquots were evaluated by microscopic morphological analysis (image analysis on Image J software) to identify the proportion of sickled and non-sickled RBCs, and sickle inhibition calculated based on the % change from negative control (DMSO).

Hb [2] = biological target: T2, Hb (Homo sapiens, UniProt P69905); assay: Affinity (KD) for Hb; format: binding
Target sequence in this assay (P69905 2-142 limits assumed): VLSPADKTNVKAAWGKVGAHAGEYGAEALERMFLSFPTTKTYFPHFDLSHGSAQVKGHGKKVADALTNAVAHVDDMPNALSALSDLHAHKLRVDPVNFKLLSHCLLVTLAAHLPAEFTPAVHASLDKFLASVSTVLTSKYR
Target sequence in this assay (P68871 2-147 partner limits assumed): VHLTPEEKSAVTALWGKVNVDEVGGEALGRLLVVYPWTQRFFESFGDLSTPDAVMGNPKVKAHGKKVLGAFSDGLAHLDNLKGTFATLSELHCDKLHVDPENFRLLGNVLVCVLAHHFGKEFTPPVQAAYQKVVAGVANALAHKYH

[3] = Single-dose oral pharmacokinetics in rats; format: in vivo, Sprague Dawley rats; conditions: oral administration, data not shown
Description: Single doses of each compound were administered as oral suspensions by gavage in 0.5% carboxy methylcellulose at 100 mg/kg. Whole blood levels were collected for at least 72 hours after dose administration. Bioanalyses were performed with liquid chromatography-tandem mass spectrometry […].
Single-dose pharmacokinetics (PK) in male Sprague Dawley (SD) rats (n=4) were assessed for each compound, and the maximum or peak whole blood concentration and area under the curve are shown in Table 5.

Hb [4] = biological target: T2, Hb; assay: Drug partitioning studies, fixed and unfixed Hb adducts in non-sickling AA blood; format: cell-based; parameters: Hemoglobin modification, studies using non-sickling AA blood; from tissue; host or cells: non-sickling (AA) human blood, red blood cells; conditions: 2 mM
Method in brief: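 Non-sickling blood was incubated with test molecules and lysed either in water (unfixed) or in 50 mM sodium borohydride (fixed). Hb adducts were quantified by cation-exchange HPLC as a fraction of total Hb. The partitioning ratio is fixed over unfixed modification and reflects intracellular Hb binding after RBC membrane permeation.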
Target sequence in this assay (P69905 2-142 limits assumed): as the sequence (P69905 2-142 limits assumed) above
Target sequence in this assay (P68871 2-147 partner limits assumed): as the sequence (P68871 2-147 partner limits assumed) above

Hb [5] = biological target: T2, Hb; assay: Hb modification (drug-adduct formation) in SS blood suspensions by cation-exchange HPLC; format: binding; parameters: Blood suspensions from subjects with homozygous SCD; from tissue; host or cells: blood suspensions (20% hematocrit) from donors with homozygous SCD; lysates of the treated red cells; conditions: 2 mM, 4 biological replicates
Method in brief: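 Homozygous SCD blood at 20% hematocrit in Hemox buffer with glucose and BSA was incubated with compound (0-2 mM) 1 h at 37° C in air, then up to 2 h hypoxia (2.5% O2). Lysates, with or without 50 mM sodium borohydride reduction, were analysed by weak cation-exchange HPLC at A410 nm for Hb-drug adducts.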
Target sequence in this assay (P69905 2-142): as the sequence (P69905 2-142 limits assumed) above
Target sequence in this assay (P68871 with tags, fused parts or gaps E7V partner): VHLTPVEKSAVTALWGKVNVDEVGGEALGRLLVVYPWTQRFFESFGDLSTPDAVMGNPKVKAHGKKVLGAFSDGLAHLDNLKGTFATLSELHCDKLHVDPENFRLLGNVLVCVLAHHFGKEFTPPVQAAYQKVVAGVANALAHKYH

T1 sequence (P01942 2-142 limits assumed): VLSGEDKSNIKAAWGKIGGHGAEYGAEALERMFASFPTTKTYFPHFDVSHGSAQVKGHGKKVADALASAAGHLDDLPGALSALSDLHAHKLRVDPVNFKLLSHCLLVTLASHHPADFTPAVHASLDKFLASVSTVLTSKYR
T1 sequence (P02088 2-147 partner limits assumed): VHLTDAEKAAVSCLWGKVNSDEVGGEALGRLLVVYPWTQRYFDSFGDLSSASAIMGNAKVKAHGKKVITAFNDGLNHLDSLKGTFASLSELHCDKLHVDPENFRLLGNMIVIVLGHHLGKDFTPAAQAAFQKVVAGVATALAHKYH

With `COC(=O)c1ccc(COc2cccc(O)c2C=O)cn1` [PP14, Methyl 5-((2-formyl-3-hydroxyphenoxy)methyl)picolinate] the Hb modification (intracellular Hb; IP 150 mg/kg, 30% PEG300, 1 hr) was 7%, the Hb modification (intracellular Hb; IP 150 mg/kg, 30% PEG300, 3 hr) was 13% and the “modified Hb” value (intracellular Hb; IP 150 mg/kg, 30% PEG300, 6 h, 150 mg/kg) was 19.1±0.6% and 19%. For the same compound, the Hb modification (intracellular Hb; IP 150 mg/kg, Catalent excipient, 1 hr) was 21.8±1.6%, the Hb modification (intracellular Hb; IP 150 mg/kg, Catalent excipient, 3 hr) was 37.7±5.0% and the Hb modification (intracellular Hb; IP 150 mg/kg, Catalent excipient, 5 hr) was 51.1±4.3%. For the same compound, the “modified Hb” value (intracellular Hb; oral gavage 150 mg/kg, Catalent excipient, 1 hr) was 14.5±3.7%, the “modified Hb” value (intracellular Hb; oral gavage 150 mg/kg, Catalent excipient, 3 hr) was 16.3±2.2% and the “modified Hb” value (intracellular Hb; oral gavage 150 mg/kg, Catalent excipient, 5 hr) was 17.1±4.4%. For the same compound, the inhibition at 2000 µM [1] was 83.1 ± 6.9%, the Kd (Hb [2]) was 150 µM and the “metabolism upon oral administration” value [3] was “rapidly metabolizes into its carboxylic acid metabolite”. The “Fixed Adducts (%)” value (Hb [4]; 6 biological replicates) was 96.1 ± 1.1%, the “Unfixed Adduct (%)” value (Hb [4]; 6 biological replicates) was 91.8 ± 11.6% and the “Partitioning Ratio (%)” value (Hb [4]; fixed relative to unfixed adducts) was 102.2 ± 8.0%. The “Hb Modification (%)” value (Hb [5]) was 85.3 ± 11.3%.
